Like-named read-outs stand apart in the source and are kept apart here.
Experiments:
[1] = target: AktK (Homo sapiens, UniProt P31749); assay: Luciferase-coupled chemiluminescence kinase assay (ATP consumption); assay type: biochemical; details: read-out: AKT-1 IC50
Summary of the method: (§1)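 Enzyme at 2.5-5 nM was preincubated 30 min at room temperature with compound in Tris pH 7.5, MgCl2, TX-100, DTT, then reacted with ATP for 3 h at ambient temperature. Remaining ATP was quantified by luciferase-luciferin chemiluminescence, with consumption kept at 25-60%; […].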

[2] = target: p70S6K (Homo sapiens, UniProt P23443); assay: as above; assay type: biochemical
Summary of the method: as §1

AktK, sequence (P31749 whole entry): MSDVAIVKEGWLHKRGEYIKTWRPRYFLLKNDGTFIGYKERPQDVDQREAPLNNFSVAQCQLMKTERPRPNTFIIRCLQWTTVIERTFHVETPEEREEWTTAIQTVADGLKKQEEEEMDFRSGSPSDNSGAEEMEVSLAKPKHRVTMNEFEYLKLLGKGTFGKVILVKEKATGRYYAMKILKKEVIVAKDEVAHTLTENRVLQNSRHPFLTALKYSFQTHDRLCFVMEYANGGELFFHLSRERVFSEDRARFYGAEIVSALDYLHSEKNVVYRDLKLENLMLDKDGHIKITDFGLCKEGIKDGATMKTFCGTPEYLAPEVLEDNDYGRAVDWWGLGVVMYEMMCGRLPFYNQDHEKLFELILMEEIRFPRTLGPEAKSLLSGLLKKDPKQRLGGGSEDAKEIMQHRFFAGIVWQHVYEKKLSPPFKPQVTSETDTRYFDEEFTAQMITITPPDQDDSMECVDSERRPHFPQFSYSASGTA
p70S6K, sequence (P23443 whole entry): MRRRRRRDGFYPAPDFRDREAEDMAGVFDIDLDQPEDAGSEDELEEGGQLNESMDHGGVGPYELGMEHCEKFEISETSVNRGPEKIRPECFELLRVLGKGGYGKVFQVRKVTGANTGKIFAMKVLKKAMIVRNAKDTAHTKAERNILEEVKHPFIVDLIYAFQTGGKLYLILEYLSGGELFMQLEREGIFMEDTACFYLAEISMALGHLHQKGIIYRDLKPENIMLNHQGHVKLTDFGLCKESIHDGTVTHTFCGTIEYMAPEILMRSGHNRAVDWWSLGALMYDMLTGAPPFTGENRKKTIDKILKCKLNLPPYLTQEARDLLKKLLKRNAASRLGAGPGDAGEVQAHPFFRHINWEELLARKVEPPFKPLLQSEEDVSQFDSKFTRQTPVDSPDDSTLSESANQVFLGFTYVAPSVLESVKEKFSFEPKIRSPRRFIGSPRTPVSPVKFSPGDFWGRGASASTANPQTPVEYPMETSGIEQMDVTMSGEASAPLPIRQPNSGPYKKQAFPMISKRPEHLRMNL

For `CCCC(=O)c1cc(NCCN2CCCC2)cc(N2CCN(c3ncnc4[nH]nc(Br)c34)CC2)c1` [Entry 283, 1-{3-[4-(3-bromo-1H-pyrazolo[3,4-d]pyrimidin-4-yl)piperazin-1-yl]-5-[(2-pyrrolidin-1-ylethyl)amino]phenyl}butan-1-one], the IC50 ([1]; Table 1, class symbols per key) was under 100 nM and the IC50 ([2]; Table 1, class symbols per key) was under 100 nM.

For `Cc1c(NCCN2CCCC2)cc(OCC2CCCC2)cc1N1CCN(c2ncnc3[nH]nc(Br)c23)CC1` [Entry 218, 3-[4-(3-bromo-1H-pyrazolo[3,4-d]pyrimidin-4-yl)piperazin-1-yl]-5-[(cyclopentylmethyl)oxy]-2-methyl-N-(2-pyrrolidin-1-ylethyl)aniline], the IC50 ([1]; Table 1, class symbols per key) was under 100 nM and the IC50 ([2]; Table 1, class symbols per key) was under 100 nM.

`Brc1n[nH]c2ncnc(N3CCN(c4nccnc4OCCN4CCCCC4)CC3)c12` [Entry 167, 3-bromo-4-(4-{3-[(2-piperidin-1-ylethyl)oxy]pyrazin-2-yl}piperazin-1-yl)-1H-pyrazolo[3,4-d]pyrimidine] was tested, and the IC50 ([1]; Table 1, class symbols per key) was 1000 to 10000 nM and the IC50 ([2]; Table 1, class symbols per key) was 100 to 1000 nM.

`Cc1c(NCCN2CCCC2)cc(OC(F)F)cc1N1CCN(c2ncnc3[nH]nc(Br)c23)CC1` [Entry 253, 3-[4-(3-bromo-1H-pyrazolo[3,4-d]pyrimidin-4-yl)piperazin-1-yl]-5-[(difluoromethyl)oxy]-2-methyl-N-(2-pyrrolidin-1-ylethyl)aniline] was tested, and the IC50 ([1]; Table 1, class symbols per key) was under 100 nM and the IC50 ([2]; Table 1, class symbols per key) was under 100 nM.

`CCNC(=O)c1cc(NCCN2CCCC2)c(C)c(N2CCN(c3ncnc4[nH]nc(Br)c34)CC2)c1` [Entry 219, 3-[4-(3-bromo-1H-pyrazolo[3,4-d]pyrimidin-4-yl)piperazin-1-yl]-N-ethyl-4-methyl-5-[(2-pyrrolidin-1-ylethyl)amino]benzamide] was tested, and the IC50 ([1]; Table 1, class symbols per key) was under 100 nM and the IC50 ([2]; Table 1, class symbols per key) was under 100 nM.

Molecule `Cc1c(NCCN2CCCC2)cc(Cl)cc1N1CCN(c2ncnc3[nH]nc(C4CC4)c23)CC1` [Entry 161, 5-chloro-3-[4-(3-cyclopropyl-1H-pyrazolo[3,4-d]pyrimidin-4-yl)piperazin-1-yl]-2-methyl-N-(2-pyrrolidin-1-ylethyl)aniline] has an IC50 ([1]; Table 1, class symbols per key) of 100 to 1000 nM and an IC50 ([2]; Table 1, class symbols per key) of under 100 nM.

For `Cc1ccc(N2CCN(c3ncnc4[nH]nc(Br)c34)CC2)cc1CCCN1CCCC1` [Entry 67, 3-bromo-4-{4-[4-methyl-3-(3-pyrrolidin-1-ylpropyl)phenyl]piperazin-1-yl}-1H-pyrazolo[3,4-d]pyrimidine], the IC50 ([1]; Table 1, class symbols per key) was 1000 to 10000 nM and the IC50 ([2]; Table 1, class symbols per key) was 100 to 1000 nM.

`Clc1cccc(N2CCN(c3ncnc4[nH]ccc34)CC2)c1` [Entry 296, 4-[4-(3-chlorophenyl)piperazin-1-yl]-7H-pyrrolo[2,3-d]pyrimidine] showed an IC50 [1] of 1000 to 10000 nM and an IC50 [2] of 100 to 1000 nM.

`Fc1ccc(N2CCN(c3ncnc4[nH]cnc34)CC2)cc1` [Entry 309, 6-[4-(4-fluorophenyl)piperazin-1-yl]-9H-purine] showed an IC50 [1] of at least 10000 nM and an IC50 [2] of 1000 to 10000 nM.

For `Cc1ccc(Cl)cc1N1CCN(c2ncnc3[nH]nc(-c4ccc5c(c4)OCO5)c23)CC1` [Entry 337, 3-(1,3-benzodioxol-5-yl)-4-[4-(5-chloro-2-methyl-phenyl)piperazin-1-yl]-1H-pyrazolo[3,4-d]pyrimidine], the IC50 [1] was 1000 to 10000 nM and the IC50 [2] was 100 to 1000 nM.

In the case of `Clc1cccc(N2CCN(c3ncnc4[nH]cnc34)CC2)c1` [Entry 294, 6-[4-(3-chlorophenyl)piperazin-1-yl]-9H-purine], the IC50 [1] is reported as at least 10000 nM and the IC50 [2] is reported as 100 to 1000 nM.

With `CCc1n[nH]c2ncnc(N3CCN(c4cc(C(F)(F)F)ccc4Cl)CC3)c12` [Entry 171, 4-{4-[2-chloro-5-(trifluoromethyl)phenyl]piperazin-1-yl}-3-ethyl-1H-pyrazolo[3,4-d]pyrimidine] the IC50 ([1]; Table 1, class symbols per key) was 1000 to 10000 nM and the IC50 ([2]; Table 1, class symbols per key) was under 100 nM.

`Brc1n[nH]c2ncnc(N3CCN(c4ncccn4)CC3)c12` [Entry 108, 3-bromo-4-(4-pyrimidin-2-ylpiperazin-1-yl)-1H-pyrazolo[3,4-d]pyrimidine] was tested, and the IC50 ([1]; Table 1, class symbols per key) was at least 10000 nM and the IC50 ([2]; Table 1, class symbols per key) was 100 to 1000 nM.

Molecule `CCc1n[nH]c2ncnc(N3CCN(c4cc(Cl)cc(C#CCN(C)C)c4C)CC3)c12` [Entry 385, 3-{5-chloro-3-[4-(3-ethyl-1H-pyrazolo[3,4-d]pyrimidin-4-yl)piperazin-1-yl]-2-methylphenyl}-N,N-dimethylprop-2-yn-1-amine] has an IC50 [1] of 1000 to 10000 nM and an IC50 [2] of under 100 nM.

Work on `Cc1c(NCCN2CCCC2)cc(F)cc1N1CCN(c2ncnc3[nH]nc(C(F)(F)F)c23)CC1` [Entry 79, 5-fluoro-2-methyl-N-(2-pyrrolidin-1-ylethyl)-3-{4-[3-(trifluoromethyl)-1H-pyrazolo[3,4-d]pyrimidin-4-yl]piperazin-1-yl}aniline] yielded an IC50 ([1]; Table 1, class symbols per key) of 100 to 1000 nM and an IC50 ([2]; Table 1, class symbols per key) of under 100 nM.

Molecule `CCCC(=O)c1cc(NCCN2CCCC2)c(C)c(N2CCN(c3ncnc4[nH]nc(Br)c34)CC2)c1` [Entry 248, 1-{3-[4-(3-bromo-1H-pyrazolo[3,4-d]pyrimidin-4-yl)piperazin-1-yl]-4-methyl-5-[(2-pyrrolidin-1-ylethyl)amino]phenyl}butan-1-one] has an IC50 ([1]; Table 1, class symbols per key) of under 100 nM and an IC50 ([2]; Table 1, class symbols per key) of under 100 nM.

`Cc1ccc(-c2ccccc2OCCCN2CCOCC2)cc1N1CCN(c2ncnc3[nH]nc(Br)c23)CC1` [Entry 278, 3-bromo-4-(4-{4-methyl-2′-[(3-morpholin-4-ylpropyl)oxy]biphenyl-3-yl}piperazin-1-yl)-1H-pyrazolo[3,4-d]pyrimidine] was tested, and the IC50 ([1]; Table 1, class symbols per key) was under 100 nM and the IC50 ([2]; Table 1, class symbols per key) was under 100 nM.

`Cc1c(NCCN(C)C)cc(C(=O)Nc2ccccc2)cc1N1CCN(c2ncnc3[nH]nc(Br)c23)CC1` [Entry 225, 3-[4-(3-bromo-1H-pyrazolo[3,4-d]pyrimidin-4-yl)piperazin-1-yl]-5-{[2-(dimethylamino)eth-yl]amino}-4-methyl-N-phenylbenzamide] gave an IC50 ([1]; Table 1, class symbols per key) of under 100 nM and an IC50 ([2]; Table 1, class symbols per key) of under 100 nM.

Work on `COc1ccc(-c2n[nH]c3ncnc(N4CCN(c5cc(Cl)ccc5C)CC4)c23)cc1` [Entry 356, 4-[4-(5-chloro-2-methylphenyl)piperazin-1-yl]-3-[4-(methyloxy)phenyl]-1H-pyrazolo[3,4-d]pyrimidine] yielded an IC50 [1] of 1000 to 10000 nM and an IC50 [2] of 100 to 1000 nM.

With `Cc1c(NCCN2CCCC2)cc(C(=O)CCC(F)(F)F)cc1N1CCN(c2ncnc3[nH]nc(Br)c23)CC1` [Entry 274, 1-{3-[4-(3-bromo-1H-pyrazolo[3,4-d]pyrimidin-4-yl)piperazin-1-yl]-4-methyl-5-[(2-pyrrolidin-1-ylethyl)amino]phenyl}-4,4,4-trifluorobutan-1-one] the IC50 ([1]; Table 1, class symbols per key) was under 100 nM and the IC50 ([2]; Table 1, class symbols per key) was under 100 nM.

In the case of `COc1cc(NCCN2CCCC2)c(C)c(N2CCN(c3ncnc4[nH]nc(Br)c34)CC2)c1` [Entry 255, 3-[4-(3-bromo-1H-pyrazolo[3,4-d]pyrimidin-4-yl)piperazin-1-yl]-2-methyl-5-(methyloxy)-N-(2-pyrrolidin-1-ylethyl)aniline], the IC50 ([1]; Table 1, class symbols per key) is reported as 100 to 1000 nM and the IC50 ([2]; Table 1, class symbols per key) is reported as under 100 nM.

Molecule `N#Cc1nccnc1N1CCN(c2ncnc3[nH]nc(Br)c23)CC1` [Entry 110, 3-[4-(3-bromo-1H-pyrazolo[3,4-d]pyrimidin-4-yl)piperazin-1-yl]pyrazine-2-carbonitrile] has an IC50 ([1]; Table 1, class symbols per key) of at least 10000 nM and an IC50 ([2]; Table 1, class symbols per key) of 100 to 1000 nM.

`Cc1c(OCCCN2CCOCC2)cc(Cl)cc1N1CCN(c2ncnc3[nH]nc(C(F)(F)F)c23)CC1` [Entry 40, 4-(4-{5-chloro-2-methyl-3-[(3-morpholin-4-ylpropyl)oxy]phenyl}piperazin-1-yl)-3-(trifluoromethyl)-1H-pyrazolo[3,4-d]pyrimidine] was tested, and the IC50 ([1]; Table 1, class symbols per key) was 1000 to 10000 nM and the IC50 ([2]; Table 1, class symbols per key) was under 100 nM.

In the case of `Brc1n[nH]c2ncnc(N3CCN(c4ccc(OCc5ccccc5)cc4)CC3)c12` [Entry 125, 3-bromo-4-(4-{4-[(phenylmethyl)oxy]phenyl}piperazin-1-yl)-1H-pyrazolo[3,4-d]pyrimidine], the IC50 ([1]; Table 1, class symbols per key) is reported as at least 10000 nM and the IC50 ([2]; Table 1, class symbols per key) is reported as 100 to 1000 nM.

`Cc1c(CCCN2CCCC2)cc(F)cc1N1CCN(c2ncnc3[nH]nc(Br)c23)CC1` [Entry 60, 3-bromo-4-{4-[5-fluoro-2-methyl-3-(3-pyrrolidin-1-ylpropyl)phenyl]piperazin-1-yl}-1H-pyrazolo[3,4-d]pyrimidine] showed an IC50 ([1]; Table 1, class symbols per key) of 100 to 1000 nM and an IC50 ([2]; Table 1, class symbols per key) of under 100 nM.

With `Cc1c(OCCCN2CCCCC2)cc(Cl)cc1N1CCN(c2ncnc3[nH]nc(C(F)(F)F)c23)CC1` [Entry 69, 4-(4-{5-chloro-2-methyl-3-[(3-piperidin-1-ylpropyl)oxy]phenyl}piperazin-1-yl)-3-(trifluoromethyl)-1H-pyrazolo[3,4-d]pyrimidine] the IC50 ([1]; Table 1, class symbols per key) was 100 to 1000 nM and the IC50 ([2]; Table 1, class symbols per key) was under 100 nM.

Molecule “4-[4-(5-chloro-2-methylphenyl)piperazin-1-yl]-3-(3-pyrrolidin-1-ylpropyl)-1H-pyrazolo[3,4-d]pyrimidine [Entry 400]” has an IC50 [1] of 1000 to 10000 nM and an IC50 [2] of 1000 to 10000 nM.

`Cc1ccc(Cl)cc1N1CCN(c2nc(-c3ccccc3)nc3[nH]nc(C)c23)CC1` [Entry 322, 4-[4-(5-chloro-2-methylphenyl)piperazin-1-yl]-3-methyl-6-phenyl-1H-pyrazolo[3,4-d]pyrimidine] was tested, and the IC50 [1] was 1000 to 10000 nM and the IC50 [2] was 1000 to 10000 nM.

`CCC(CC)COc1cc(NCCN2CCCC2)c(C)c(N2CCN(c3ncnc4[nH]nc(Br)c34)CC2)c1` [Entry 207, 3-[4-(3-bromo-1H-pyrazolo[3,4-d]pyrimidin-4-yl)piperazin-1-yl]-5-[(2-ethylbutyl)oxy]-2-methyl-N-(2-pyrrolidin-1-ylethyl)aniline] gave an IC50 ([1]; Table 1, class symbols per key) of under 100 nM and an IC50 ([2]; Table 1, class symbols per key) of under 100 nM.

`Cc1ccc(Cl)cc1N1CCN(c2ncnc3[nH]nc(-c4ccc(OCCN5CCOCC5)cc4)c23)CC1` [Entry 373, 4-[4-(5-chloro-2-methylphenyl)piperazin-1-yl]-3-{4-[(2-morpholin-4-ylethyl)oxy]phenyl}-1H-pyrazolo[3,4-d]pyrimidine] showed an IC50 [1] of 1000 to 10000 nM and an IC50 [2] of 1000 to 10000 nM.

For `Cc1ccc(OCC(F)(CF)CF)cc1N1CCN(c2ncnc3[nH]nc(Br)c23)CC1` [Entry 263, 3-bromo-4-[4-(5-{[2,3-difluoro-2-(fluorometh-yl)propyl]oxy}-2-methylphenyl)piperazin-1-yl]-1H-pyrazolo[3,4-d]pyrimidine], the IC50 ([1]; Table 1, class symbols per key) was under 100 nM and the IC50 ([2]; Table 1, class symbols per key) was under 100 nM.

Reference: patent publication US8076338B2, “Kinase modulators and methods of use” (Exelixis, Inc., priority 2004, dated 2011)
